Consider 28 compounds from patent US11203591B2, “Substituted 6-azabenzimidazole compounds” (Gilead Sciences, Inc., priority 2018, dated 2021).

In one assay the target is human HPK1 (MAP4K1) (Homo sapiens (Human), UniProt Q92918). Description: HPK1 IC50 Assay (TR-FRET peptide phosphorylation). The class given is biochemical. Conditions: 0.15 nM HPK1, 10 μM ATP, 1 μM STK S1 peptide substrate; geometric mean. The gist of the method: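 Readout: TR-FRET (665 nm/620 nm) after EDTA stop, detecting STK S1 peptide (1 μM) phosphorylation by 0.15 nM HPK1 kinase domain, ATP-pre-activated, at 10 μM ATP over 3 h, 25° C, pH 7.0. IC50s from four-parameter variable-slope fits, normalized to staurosporine and DMSO, averaged geometrically.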
Sequence of human HPK1 (MAP4K1) (Q92918 17-274): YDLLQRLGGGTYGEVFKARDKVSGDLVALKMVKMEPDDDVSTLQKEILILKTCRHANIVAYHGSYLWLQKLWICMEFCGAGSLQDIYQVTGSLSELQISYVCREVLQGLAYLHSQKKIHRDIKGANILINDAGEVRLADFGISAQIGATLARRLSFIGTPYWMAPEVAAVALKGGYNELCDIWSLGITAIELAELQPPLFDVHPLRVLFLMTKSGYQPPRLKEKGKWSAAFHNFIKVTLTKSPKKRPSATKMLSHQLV
One may read the IC50 as the concentration that gives 50% inhibition. In the case of `CCNC(=O)c1cc(Nc2nc(-c3cnc4c(c3)N([C@H]3C[C@@](C)(N5CCCCC5)C3)C(=O)C4(C)C)cc3ncn(C(C)C)c23)c(F)c(F)c1Cl` [Example 286, 2-chloro-5-((6-(3,3-dimethyl-1-((1s,3s)-3-methyl-3-(piperidin-1-yl)cyclobutyl)-2-oxo-2,3-dihydro-1H-pyrrolo[3,2-b]pyridin-6-yl)-3-isopropyl-3H-imidazo[4,5-c]pyridin-4-yl)amino)-N-ethyl-3,4-difluorobenzamide], the IC50 is 0.1 nM.

`Cc1cc(F)c(Nc2nc(-c3ccc4c(c3)N([C@H]3C[C@@](C)(N5CCCCC5)C3)C(=O)C4(C)C)cc3ncn(C(C)C)c23)cc1C(=O)NCC(F)F` [Example 266, N-(2,2-difluoroethyl)-5-((6-(3,3-dimethyl-1-((1s,3s)-3-methyl-3-(piperidin-1-yl)cyclobutyl)-2-oxoindolin-6-yl)-3-isopropyl-3H-imidazo[4,5-c]pyridin-4-yl)amino)-4-fluoro-2-methylbenzamide] gave an IC50 of 0.06 nM.

Turning to `CCNC(=O)c1cc(Nc2nc(-c3cnc4c(c3)N([C@H]3C[C@@](C)(N5CCCC6(CC6)C5)C3)C(=O)C4(C)C)cc3ncn(C(C)C)c23)c(F)c(F)c1Cl` [Example 283, 2-chloro-5-((6-(3,3-dimethyl-1-((1s,3s)-3-methyl-3-(5-azaspiro[2.5]octan-5-yl)cyclobutyl)-2-oxo-2,3-dihydro-1H-pyrrolo[3,2-b]pyridin-6-yl)-3-isopropyl-3H-imidazo[4,5-c]pyridin-4-yl)amino)-N-ethyl-3,4-difluorobenzamide], 0.09 nM corresponded to half-maximal inhibition (IC50).

As for `CC(C)n1cnc2cc(-c3ccc4c(c3)N([C@H]3C[C@@](C)(N5CCCCC5)C3)C(=O)C4(C)C)nc(Nc3cc(C(=O)NCC(F)F)c(Cl)c(F)c3F)c21` [Example 287, 2-chloro-N-(2,2-difluoroethyl)-5-((6-(3,3-dimethyl-1-((1s,3s)-3-methyl-3-(piperidin-1-yl)cyclobutyl)-2-oxoindolin-6-yl)-3-isopropyl-3H-imidazo[4,5-c]pyridin-4-yl)amino)-3,4-difluorobenzamide], it took 0.08 nM to reach half-maximal inhibition (IC50).

The assay is the same for the next values; noted with them: recombinant HPK1 kinase domain 0.15 nM, 10 μM ATP, 1 μM STK S1 peptide; geometric mean of multiple experiments.
Regarding `CC(C)n1cnc2cc(-c3cnc4c(c3)N([C@H]3C[C@@](C)(N5CCCCCC5)C3)C(=O)C4(C)C)nc(Nc3cc(C(=O)NCC(F)F)c(Cl)c(F)c3F)c21` [Example 248, 5-((6-(1-((1s,3s)-3-(azepan-1-yl)-3-methylcyclobutyl)-3,3-dimethyl-2-oxo-2,3-dihydro-1H-pyrrolo[3,2-b]pyridin-6-yl)-3-isopropyl-3H-imidazo[4,5-c]pyridin-4-yl)amino)-2-chloro-N-(2,2-difluoroethyl)-3,4-difluorobenzamide], the IC50 came out at 0.05 nM.

With `CNC(=O)c1cc(Nc2nc(-c3ccc4c(c3)N([C@H]3C[C@@H](N5CCCCC5)C3)C(=O)C4(C)C)cc3ncn(C4CC4)c23)ccc1Cl` [Example 40], the IC50 amounted to 0.1 nM.

Take `CNC(=O)c1cc(Nc2nc(-c3ccc4c(c3)N([C@H]3C[C@@H](N5C6CCC5COC6)C3)C(=O)C4(C)C)cc3ncn(C(C)C)c23)c(F)cc1C` [Example 8]: the IC50 is 0.08 nM.

Consider `Cc1c(C(=O)NCC(F)F)cc(Nc2nc(-c3cnc4c(c3)N([C@H]3C[C@@](C)(N5CCCCC5)C3)C(=O)C4(C)C)cc3ncn(C(C)C)c23)c(F)c1F` [Example 217, N-(2,2-Difluoroethyl)-5-((6-(3,3-dimethyl-1-((1s,3s)-3-methyl-3-(piperidin-1-yl)cyclobutyl)-2-oxo-2,3-dihydro-1H-pyrrolo[3,2-b]pyridin-6-yl)-3-isopropyl-3H-imidazo[4,5-c]pyridin-4-yl)amino)-3,4-difluoro-2-methylbenzamide], for which the IC50 amounted to 0.06 nM.

For the compound `CC(C)n1cnc2cc(-c3cnc4c(c3)N([C@H]3C[C@@](C)(N5CCCCC5)C3)C(=O)C4(C)C)nc(Nc3cc(C(=O)NCC(F)F)c(Cl)c(F)c3F)c21` [Example 250, 2-chloro-N-(2,2-difluoroethyl)-5-((6-(3,3-dimethyl-1-((1s,3s)-3-methyl-3-(piperidin-1-yl)cyclobutyl)-2-oxo-2,3-dihydro-1H-pyrrolo[3,2-b]pyridin-6-yl)-3-isopropyl-3H-imidazo[4,5-c]pyridin-4-yl)amino)-3,4-difluorobenzamide], the IC50 is 0.1 nM.

For the compound `CNC(=O)c1cc(Nc2nc(-c3ccc4c(c3)N([C@H]3C[C@@H](N5CC[C@@H](F)C5)C3)C(=O)C4(C)C)cc3ncn(C(C)C)c23)ccc1C` [Example 4], the IC50 came out at 0.1 nM.

For `Cc1c(C(=O)NC2(C(F)F)CC2)cc(Nc2nc(-c3cnc4c(c3)N([C@H]3C[C@@](C)(N5C[C@H]6COC[C@H]6C5)C3)C(=O)C4(C)C)cc3ncn(C(C)C)c23)c(F)c1F` [Example 189, N-(1-(Difluoromethyl)cyclopropyl)-5-((6-(3,3-dimethyl-1-((1S,3s)-3-methyl-3-((3 aR,6aS)-tetrahydro-1H-furo[3,4-c]pyrrol-5(3H)-yl)cyclobutyl)-2-oxo-2,3-dihydro-1H-pyrrolo[3,2-b]pyridin-6-yl)-3-isopropyl-3H-imidazo[4,5-c]pyridin-4-yl)amino)-3,4-difluoro-2-methylbenzamide], the concentration for half-maximal inhibition (IC50) was determined as 0.2 nM.

`CNC(=O)c1cc(Oc2nc(-c3ccc4c(c3)N([C@H]3C[C@@H](N5CCCCC5)C3)C(=O)C4(C)C)cc3ncn(C4CC4)c23)ccc1C` [Example 34]: the IC50 stood at 0.6 nM.

On to `Cc1c(C(=O)NC2(C(F)F)CC2)cc(Nc2nc(-c3cc4c(nc3F)C(C)(C)C(=O)N4[C@H]3C[C@@](C)(N4CCCCC4)C3)cc3ncn(C(C)C)c23)c(F)c1F` [Example 195, N-(1-(Difluoromethyl)cyclopropyl)-3,4-difluoro-5-((6-(5-fluoro-3,3-dimethyl-1-((1s,3s)-3-methyl-3-(piperidin-1-yl)cyclobutyl)-2-oxo-2,3-dihydro-1H-pyrrolo[3,2-b]pyridin-6-yl)-3-isopropyl-3H-imidazo[4,5-c]pyridin-4-yl)amino)-2-methylbenzamide], for which the IC50 is 0.07 nM.

Consider `Cc1cc(F)c(Nc2nc(-c3ccc4c(c3)N([C@H]3C[C@@H](N5CCC[C@@H](F)C5)C3)C(=O)C4(C)C)cc3ncn(C(C)C)c23)cc1C(=O)NC(C)C` [Example 110], for which the half-inhibitory concentration (IC50) turned out to be 0.2 nM.

With `CNC(=O)c1cc(Nc2nc(-c3ccc4c(c3)N([C@H]3C[C@@H](N5C6COCC5C6)C3)C(=O)C4(C)C)cc3ncn(C(C)C)c23)ccc1C` [Example 6], the IC50 was 0.1 nM.

Take `Cc1ccc(Nc2nc(-c3ccc4c(c3)N([C@H]3C[C@@H](N5CCC[C@H](O)C5)C3)C(=O)C4(C)C)cc3ncn(C4CC4)c23)cc1C(N)=O` [Example 36]: the IC50 was 0.1 nM.

As to `CNC(=O)c1cc(Nc2nc(-c3ccc4c(c3)N([C@H]3C[C@@H](N5CCCCC5)C3)C(=O)C4(C)C)cc3ncn(C4CC4)c23)ccc1C` [Example 79], the concentration for half-maximal inhibition (IC50) turned out to be 0.2 nM.

For the compound `Cc1ccc(Nc2nc(-c3ccc4c(c3)N([C@H]3C[C@@H](N5CCCCC5)C3)C(=O)C4(C)C)cc3ncn(C(C)C)c23)cc1C(=O)NC(CF)CF` [Example 31], the IC50 stood at 0.08 nM.

Turning to `CNC(=O)c1cc(Nc2nc(-c3ccc4c(c3)N([C@H]3C[C@@H](N5CCCCC5)C3)C(=O)C43CCN(C4COC4)CC3)cc3ncn(C(C)C)c23)c(F)cc1C` [Example 68], the IC50 was determined as 0.2 nM.

Turning to `CCNC(=O)c1cc(Nc2nc(-c3ccc4c(c3)N([C@H]3C[C@@](C)(N5CCCCC5)C3)C(=O)C4(C)C)cc3ncn(C(C)C)c23)c(F)c(F)c1C` [Example 239, 5-((6-(3,3-Dimethyl-1-((1s,3s)-3-methyl-3-(piperidin-1-yl)cyclobutyl)-2-oxoindolin-6-yl)-3-isopropyl-3H-imidazo[4,5-c]pyridin-4-yl)amino)-N-ethyl-3,4-difluoro-2-methylbenzamide], the half-maximal inhibitory concentration (IC50) came to 0.04 nM.

`CNC(=O)c1cc(Nc2nc(-c3ccc4c(c3)N([C@H]3C[C@@H](N5CCCCC5)C3)C(=O)C4(C)C)cc3ncn(C(C)C)c23)ccc1C` [Example 1, 5-((6-(3,3-dimethyl-2-oxo-1-((1s,3s)-3-(piperidin-1-yl)cyclobutyl)indolin-6-yl)-3-isopropyl-3H-imidazo[4,5-c]pyridin-4-yl)amino)-N,2-dimethylbenzamide]: the IC50 turned out to be 0.08 nM.

Consider `CC[C@H](C)n1cnc2cc(-c3ccc4c(c3)N([C@H]3C[C@@H](N5CCCCC5)C3)C(=O)C4(C)C)nc(Nc3ccc(Cl)c(C(=O)NC)c3)c21` [Example 114], for which the IC50 is 0.05 nM.

`CC[C@@H](C)NC(=O)c1cc(Nc2nc(-c3ccc4c(c3)N([C@H]3C[C@@H](N5CCCCC5)C3)C(=O)C43CCN(C(C)=O)CC3)cc3ncn(C(C)C)c23)c(F)cc1C` [Example 87]: the IC50 is 0.3 nM.

Take `CC[C@H](C)n1cnc2cc(-c3ccc4c(c3)N([C@H]3C[C@@H](N5CCCCC5)C3)C(=O)C4(C)C)nc(Nc3ccc(C)c(C(=O)NC)c3)c21` [Example 128]: the half-maximal inhibitory concentration (IC50) turned out to be 0.1 nM.

Take `Cc1ccc(Nc2nc(-c3ccc4c(c3)N([C@H]3C[C@@H](N5CCCCC5)C3)C(=O)C4(C)C)cc3ncn(C(C)C)c23)cc1C(=O)NC(C)C(F)F` (stereo partly shown) [Example 21, N-(1,1-difluoropropan-2-yl)-5-((6-(3,3-dimethyl-2-oxo-1-((1s,3s)-3-(piperidin-1-yl)cyclobutyl)indolin-6-yl)-3-isopropyl-3H-imidazo[4,5-c]pyridin-4-yl)amino)-2-methylbenzamide]: the IC50 stood at 0.05 nM.

`CNC(=O)c1cc(Nc2nc(-c3ccc4c(c3)N([C@H]3C[C@@H](N5CCCCC5)C3)C(=O)C43CCN(C(=O)C45CC(O)(C4)C5)CC3)cc3ncn(C(C)C)c23)ccc1C` [Example 148]: the IC50 stood at 0.2 nM.

For `COCCNC(=O)c1cc(Nc2nc(-c3ccc4c(c3)N([C@H]3C[C@@H](N5CCCCC5)C3)C(=O)C43CCN(C(C)=O)CC3)cc3ncn(C(C)C)c23)ccc1C` [Example 131], the IC50 stood at 0.2 nM.

For `CCn1cnc2cc(-c3ccc4c(c3)N([C@H]3C[C@@H](N5CCCCC5)C3)C(=O)C43CCN(C(C)=O)CC3)nc(Nc3cc(C(=O)NC(C)C)c(C)cc3F)c21` [Example 54], the IC50 was 0.4 nM.
